Measurements taken from the NIST ThermoML archive (doi:10.1021/je034023f).
± gives the expanded uncertainty stated by the source.

Test: Henry's Law constant (molality scale); of the first substance listed, at infinite dilution; mn = molality of the nth substance listed, in mol/kg
Settings: Liquid, m1 = 0

O=C=O [carbon dioxide] + CCCCn1cc[n+](C)c1.F[P-](F)(F)(F)(F)F
Settings | Henry's Law constant [kPa·kg/mol]
293.15 K | 1200 ± 80
313.15 K | 1890 ± 80
333.15 K | 2700 ± 80
353.15 K | 3570 ± 80
373.15 K | 4470 ± 80
393.15 K | 5490 ± 80
